Source: ChEMBL document CHEMBL5584201, “Amphiphilic tribasic galactosamines potentiate rifampicin in Gram-negative bacteria at low Mg++/Ca++concentrations” (Bioorg Med Chem Lett, 2024)
Values belong to the molecule of their own block, whether it stands above or below them. Activity calls are given as the source filed them. The rule behind the calls is not given here.

What was measured:
Acinetobacter baumannii [1] = test: Potentiation of rifampicin-induced antibacterial activity against Acinetobacter baumannii ATCC 17978 assessed as rifampicin MIC in low salt containing media by Mueller-Hinton broth based assay; type: functional
Escherichia coli [2] = test: Potentiation of rifampicin-induced antibacterial activity against Escherichia coli ATCC 25922 assessed as rifampicin MIC in low salt containing media by Mueller-Hinton broth based assay; type: functional
Escherichia coli [3] = test: Potentiation of rifampicin-induced antibacterial activity against Escherichia coli ATCC 25922 assessed as fold change in rifampicin MIC in low salt containing media by Mueller-Hinton broth based assay; type: functional
Pseudomonas aeruginosa [4] = test: Antibacterial activity against Pseudomonas aeruginosa PAO1 in low salt containing media by Mueller-Hinton broth based assay; type: functional
Escherichia coli [5] = test: Antibacterial activity against Escherichia coli ATCC 25922 in low salt containing media by Mueller-Hinton broth based assay; type: functional
Acinetobacter baumannii [6] = test: Potentiation of rifampicin-induced antibacterial activity against Acinetobacter baumannii ATCC 17978 assessed as fold change in rifampicin MIC in low salt containing media by Mueller-Hinton broth based assay; type: functional
Acinetobacter baumannii [7] = test: Antibacterial activity against Acinetobacter baumannii ATCC 17978 in low salt containing media by Mueller-Hinton broth based assay; type: functional
Pseudomonas aeruginosa [8] = test: Potentiation of rifampicin-induced antibacterial activity against Pseudomonas aeruginosa PAO1 assessed as fold change in rifampicin MIC in low salt containing media by Mueller-Hinton broth based assay; type: functional
Pseudomonas aeruginosa [9] = test: Potentiation of rifampicin-induced antibacterial activity against Pseudomonas aeruginosa PAO1 assessed as rifampicin MIC in low salt containing media by Mueller-Hinton broth based assay; type: functional
Escherichia coli [10] = test: Potentiation of rifampicin-induced antibacterial activity against Escherichia coli […] assessed as fold change in rifampicin MIC at 16 microg/ml in high concentration of Ca++ and Mg++ containing media by Mueller-Hinton broth based assay; type: functional; conditions: dose 16 µg/ml
Acinetobacter baumannii [11] = test: Potentiation of rifampicin-induced antibacterial activity against Acinetobacter baumannii ATCC 17978 assessed as rifampicin MIC at 16 microg/ml in high concentration of Ca++ and Mg++ containing media by Mueller-Hinton broth based assay; type: functional; conditions: dose 16 µg/ml
Escherichia coli [12] = test: Potentiation of rifampicin-induced antibacterial activity against Escherichia coli ATCC 25922 assessed as fold change in rifampicin MIC at 2 to 8 microg/ml in high concentration of Ca++ and Mg++ containing media by Mueller-Hinton broth based assay; type: functional; conditions: dose 2-8 µg/ml
Acinetobacter baumannii [13] = test: Potentiation of rifampicin-induced antibacterial activity against Acinetobacter baumannii 92247 assessed as rifampicin MIC at 16 microg/ml in high concentration of Ca++ and Mg++ containing media by Mueller-Hinton broth based assay; type: functional; conditions: dose 16 µg/ml
Acinetobacter baumannii [14] = test: Potentiation of rifampicin-induced antibacterial activity against multidrug resistant Acinetobacter baumannii AB031 at 1/4 MIC in low salt containing media by Mueller-Hinton broth based assay; type: functional, organism-based
Escherichia coli [15] = test: Potentiation of rifampicin-induced antibacterial activity against Escherichia coli […] assessed as rifampicin MIC at 2 to 8 microg/ml in high concentration of Ca++ and Mg++ containing media by Mueller-Hinton broth based assay; type: functional; conditions: dose 2-8 µg/ml
Acinetobacter baumannii [16] = test: Potentiation of rifampicin-induced antibacterial activity against Acinetobacter baumannii ATCC 17978 assessed as fold change in rifampicin MIC at 16 microg/ml in high concentration of Ca++ and Mg++ containing media by Mueller-Hinton broth based assay; type: functional; conditions: dose 16 µg/ml
Acinetobacter baumannii [17] = test: Antibacterial activity against Acinetobacter baumannii ATCC 17978 in high concentration of Ca++ and Mg++ containing media by Mueller-Hinton broth based assay; type: functional
Escherichia coli [18] = test: Potentiation of rifampicin-induced antibacterial activity against Escherichia coli ATCC 25922 assessed as rifampicin MIC at 2 to 8 microg/ml in high concentration of Ca++ and Mg++ containing media by Mueller-Hinton broth based assay; type: functional; conditions: dose 2-8 µg/ml
Escherichia coli [19] = test: Potentiation of rifampicin-induced antibacterial activity against Escherichia coli clinical isolate 94474 at 1/4 MIC in low salt containing media by Mueller-Hinton broth based assay; type: functional, organism-based
Escherichia coli [20] = test: Potentiation of rifampicin-induced antibacterial activity against Escherichia coli clinical isolate 107115 at 1/4 MIC in low salt containing media by Mueller-Hinton broth based assay; type: functional, organism-based
Acinetobacter baumannii [21] = test: Antibacterial activity against Acinetobacter baumannii 92247 in high concentration of Ca++ and Mg++ containing media by Mueller-Hinton broth based assay; type: functional
[22] = Cytotoxicity against HEK293 cells assessed as cell viability at 9 uM relative to control; type: toxicity, cell-based; conditions: human, read-out: Activity
Acinetobacter baumannii [23] = test: Potentiation of rifampicin-induced antibacterial activity against Acinetobacter baumannii 92247 assessed as fold change in rifampicin MIC at 2 to 8 microg/ml in high concentration of Ca++ and Mg++ containing media by Mueller-Hinton broth based assay; type: functional; conditions: dose 2-8 µg/ml
Escherichia coli [24] = test: Potentiation of rifampicin-induced antibacterial activity against Escherichia coli ATCC 25922 assessed as rifampicin MIC at 16 microg/ml in high concentration of Ca++ and Mg++ containing media by Mueller-Hinton broth based assay; type: functional; conditions: dose 16 µg/ml
Acinetobacter baumannii [25] = test: Potentiation of rifampicin-induced antibacterial activity against Acinetobacter baumannii 92247 assessed as fold change in rifampicin MIC at 16 microg/ml in high concentration of Ca++ and Mg++ containing media by Mueller-Hinton broth based assay; type: functional; conditions: dose 16 µg/ml
Escherichia coli [26] = test: Antibacterial activity against Escherichia coli […] in high concentration of Ca++ and Mg++ containing media by Mueller-Hinton broth based assay; type: functional
Escherichia coli [27] = test: Potentiation of rifampicin-induced antibacterial activity against Escherichia coli ATCC 25922 assessed as fold change in rifampicin MIC at 16 microg/ml in high concentration of Ca++ and Mg++ containing media by Mueller-Hinton broth based assay; type: functional; conditions: dose 16 µg/ml
Acinetobacter baumannii [28] = test: Potentiation of rifampicin-induced antibacterial activity against multidrug resistant Acinetobacter baumannii clinical isolate 92247 at 1/4 MIC in low salt containing media by Mueller-Hinton broth based assay; type: functional, organism-based
Acinetobacter baumannii [29] = test: Potentiation of rifampicin-induced antibacterial activity against multidrug resistant Acinetobacter baumannii clinical isolate 110193 at 1/4 MIC in low salt containing media by Mueller-Hinton broth based assay; type: functional, organism-based
[30] = Cytotoxicity against human HepG2 cells assessed as cell viability at 9 uM relative to control; type: toxicity, cell-based; conditions: read-out: Activity
Escherichia coli [31] = test: Antibacterial activity against Escherichia coli ATCC 25922 in high concentration of Ca++ and Mg++ containing media by Mueller-Hinton broth based assay; type: functional
Acinetobacter baumannii [32] = test: Potentiation of rifampicin-induced antibacterial activity against multidrug resistant Acinetobacter baumannii LAC-4 in low salt containing media by Mueller-Hinton broth based assay; type: functional, organism-based
Acinetobacter baumannii [33] = test: Potentiation of rifampicin-induced antibacterial activity against multidrug resistant Acinetobacter baumannii AB027 at 1/4 MIC in low salt containing media by Mueller-Hinton broth based assay; type: functional, organism-based
Escherichia coli [34] = test: Potentiation of rifampicin-induced antibacterial activity against Escherichia coli […] assessed as fold change in rifampicin MIC at 2 to 8 microg/ml in high concentration of Ca++ and Mg++ containing media by Mueller-Hinton broth based assay; type: functional; conditions: dose 2-8 µg/ml
Escherichia coli [35] = test: Potentiation of rifampicin-induced antibacterial activity against Escherichia coli […] assessed as rifampicin MIC at 16 microg/ml in high concentration of Ca++ and Mg++ containing media by Mueller-Hinton broth based assay; type: functional; conditions: dose 16 µg/ml
Escherichia coli [36] = test: Potentiation of rifampicin-induced antibacterial activity against Escherichia coli clinical isolate 94393 at 1/4 MIC in low salt containing media by Mueller-Hinton broth based assay; type: functional, organism-based
Acinetobacter baumannii [37] = test: Potentiation of rifampicin-induced antibacterial activity against Acinetobacter baumannii ATCC 17978 assessed as fold change in rifampicin MIC at 2 to 8 microg/ml in high concentration of Ca++ and Mg++ containing media by Mueller-Hinton broth based assay; type: functional; conditions: dose 2-8 µg/ml
Acinetobacter baumannii [38] = test: Potentiation of rifampicin-induced antibacterial activity against Acinetobacter baumannii ATCC 17978 assessed as rifampicin MIC at 2 to 8 microg/ml in high concentration of Ca++ and Mg++ containing media by Mueller-Hinton broth based assay; type: functional; conditions: dose 2-8 µg/ml
Acinetobacter baumannii [39] = test: Potentiation of rifampicin-induced antibacterial activity against Acinetobacter baumannii 92247 assessed as rifampicin MIC at 2 to 8 microg/ml in high concentration of Ca++ and Mg++ containing media by Mueller-Hinton broth based assay; type: functional; conditions: dose 2-8 µg/ml

SMILES: CCCCCCO[C@@H]1O[C@H](CN)[C@H](N)[C@H](OCc2ccc3ccccc3c2)[C@H]1N
MIC (Acinetobacter baumannii [1]): 16 µg/mL
MIC (Escherichia coli [2]): 16 µg/mL
fold change (FC) (Escherichia coli [3]): 32
MIC (Pseudomonas aeruginosa [4]): > 128 µg/mL
MIC (Escherichia coli [5]): 64 µg/mL
fold change (FC) (Acinetobacter baumannii [6]): 32
MIC (Acinetobacter baumannii [7]): 128 µg/mL
fold change (FC) (Pseudomonas aeruginosa [8]): 1
MIC (Pseudomonas aeruginosa [9]): 16 µg/mL

SMILES: NC[C@H]1O[C@@H](OCCC23CC4CC(CC(C4)C2)C3)[C@H](N)[C@@H](OCc2ccc3ccccc3c2)[C@H]1N
fold change (FC) (Escherichia coli [10]): 8
MIC (Acinetobacter baumannii [11]): 16 µg/mL
fold change (FC) (Escherichia coli [12]): 1
MIC (Acinetobacter baumannii [13]): 16 µg/mL
Activity (Acinetobacter baumannii [14]): inactive
MIC (Escherichia coli [15]): 4 µg/mL
fold change (FC) (Acinetobacter baumannii [16]): 2
MIC (Acinetobacter baumannii [17]): > 128 µg/mL
MIC (Escherichia coli [18]): 2 µg/mL
Activity (Escherichia coli [19]): inactive
Activity (Escherichia coli [20]): inactive
MIC (Acinetobacter baumannii [21]): > 128 µg/mL
MIC (Acinetobacter baumannii [1]): 4 µg/mL
viability at 9 µM [22]: 46.7%
fold change (FC) (Acinetobacter baumannii [23]): 2
MIC (Escherichia coli [24]): 16 µg/mL
fold change (FC) (Acinetobacter baumannii [25]): 64
MIC (Escherichia coli [26]): > 128 µg/mL
MIC (Escherichia coli [2]): 2 µg/mL
fold change (FC) (Escherichia coli [27]): 2
fold change (FC) (Escherichia coli [3]): 16
Activity (Acinetobacter baumannii [28]): inactive
Activity (Acinetobacter baumannii [29]): inactive
viability at 9 µM [30]: 76%
MIC (Pseudomonas aeruginosa [4]): 32 µg/mL
MIC (Escherichia coli [5]): 8 µg/mL
fold change (FC) (Acinetobacter baumannii [6]): >=256
MIC (Escherichia coli [31]): > 128 µg/mL
Activity (Acinetobacter baumannii [32]): inactive
Activity (Acinetobacter baumannii [33]): inactive
fold change (FC) (Escherichia coli [34]): 1
MIC (Escherichia coli [35]): 16 µg/mL
Activity (Escherichia coli [36]): Active
fold change (FC) (Acinetobacter baumannii [37]): 1
MIC (Acinetobacter baumannii [38]): 4 µg/mL
MIC (Acinetobacter baumannii [7]): 16 µg/mL
fold change (FC) (Pseudomonas aeruginosa [8]): 2
MIC (Pseudomonas aeruginosa [9]): 8 µg/mL
MIC (Acinetobacter baumannii [39]): 2 µg/mL

SMILES: CCCCCCCCO[C@@H]1O[C@H](CN)[C@H](N)[C@H](OCc2ccc3cccnc3c2)[C@H]1N
MIC (Acinetobacter baumannii [1]): 8 µg/mL
MIC (Escherichia coli [2]): 8 µg/mL
fold change (FC) (Escherichia coli [3]): 32
MIC (Pseudomonas aeruginosa [4]): > 128 µg/mL
MIC (Escherichia coli [5]): 64 µg/mL
fold change (FC) (Acinetobacter baumannii [6]): 64
MIC (Acinetobacter baumannii [7]): 128 µg/mL
fold change (FC) (Pseudomonas aeruginosa [8]): 2
MIC (Pseudomonas aeruginosa [9]): 8 µg/mL

The remaining molecules from weak to strong by MIC (Acinetobacter baumannii [1]), led by results:

MIC (Acinetobacter baumannii [1]): 8 µg/mL
MIC (Escherichia coli [2]): 8 µg/mL
MIC (Pseudomonas aeruginosa [4]): > 128 µg/mL
MIC (Escherichia coli [5]): 32 µg/mL
MIC (Acinetobacter baumannii [7]): 32 µg/mL
MIC (Pseudomonas aeruginosa [9]): 16 µg/mL
SMILES: CCCCCCCCO[C@@H]1O[C@H](CO)[C@H](N)[C@H](OCc2ccc3ccccc3c2)[C@H]1N
fold change (FC) (Escherichia coli [3]): 2
fold change (FC) (Acinetobacter baumannii [6]): 2
fold change (FC) (Pseudomonas aeruginosa [8]): 1

MIC (Acinetobacter baumannii [1]): 1 µg/mL
MIC (Escherichia coli [2]): 0.5 µg/mL
MIC (Pseudomonas aeruginosa [4]): 8 µg/mL
MIC (Escherichia coli [5]): 4 µg/mL
MIC (Acinetobacter baumannii [7]): 4 µg/mL
MIC (Pseudomonas aeruginosa [9]): 2 µg/mL
SMILES: CCCCCCCCCCCCO[C@@H]1O[C@H](CN)[C@H](N)[C@H](OCc2ccc3ccccc3c2)[C@H]1N
fold change (FC) (Escherichia coli [3]): 1
fold change (FC) (Acinetobacter baumannii [6]): 8
fold change (FC) (Pseudomonas aeruginosa [8]): 1
